# Measurements from a melting point compilation (Tetko et al.).
row,melting point [°C],SMILES
1,229 to 231,Nc1cccc(N2CCCNC2=O)c1
2,198 to 200,CCOc1ccc(C(=O)O)cc1C
3,87 to 89,CC(C)C[C@H](NC(=O)OC(C)(C)C)C(=O)O
4,189 to 191,O=C(O)c1ccc2c(c1)COCO2
5,173 to 175,CCCn1c(=O)n(CC(=O)O)c2ccccc21
6,186 to 188,Cc1nn(-c2ccc(Cl)cc2Cl)c(C)c1CC(=O)O
7,94 to 96,CC1CN(c2ccccc2C=O)CC(C)O1 (stereo unspecified)
8,127 to 129,O=C(O)C1CCCN1C(=O)c1ccc(Cl)s1 (stereo unspecified)
9,51 to 53,O=C(O)CSc1ccccc1O
10,149 to 151,CC(C)(C)OC(=O)NC1CCCCC1(C)C(=O)O (stereo unspecified)
11,89 to 91,Nc1cccc(CN2CCC(CO)CC2)c1
12,217 to 219,Nc1ccc2c(c1)OCC(=O)N2
13,192 to 194,Cc1cc(C#N)ccc1C(=O)O
14,156 to 158,O=c1c2ccc(C(F)(F)F)cc2nc2n1CCC2
15,157 to 159,O=C(NC1CC1)c1cccc(O)c1
16,337 to 339,Nc1nc2ccc(C(=O)O)cc2o1
17,137 to 139,CS(=O)(=O)N1CCc2cc(C(=O)CCl)ccc21
18,116 to 118,COc1ccc(Br)cc1CCC(=O)O
19,167 to 169,Cc1nnnn1C(Cc1ccccc1)C(=O)O (stereo unspecified)
20,168 to 170,O=C(O)C1Cc2ccccc2N1 (stereo unspecified)
21,84 to 86,CC(C)(C)OC(=O)N1CCc2cc(N)ccc21
22,79 to 81,CNCC(=O)Nc1ccc(C)cn1
23,269 to 271,Cc1ccc(C(=O)O)cc1NC(=O)c1ccccc1
24,164 to 166,O=C(O)c1ccc2c(c1)COC2
25,164 to 166,COc1ccc(S(=O)(=O)NC2CCOCC2)cc1N

# Further lines, the compound ahead of its results:
row,SMILES,melting point [°C]
1,Nc1cc(C2CCOCC2)[nH]n1,103 to 105
2,O=C(O)C1CCN(C(=O)c2ccc(Br)cc2)CC1,202 to 204
3,O=C(O)CC1CCOCC1,59 to 61
4,O=C(CCl)c1ccc2c(c1)-c1cc(C(=O)CCl)ccc1C2,200 to 202
5,Clc1nc(-c2ccsc2)nc2ccccc12,122 to 124
6,O=[N+]([O-])c1ccc(S(=O)(=O)C(F)(F)F)cc1,81 to 83
7,Cc1csc(SCc2c(C(=O)O)oc3ccccc23)n1,177 to 179
8,COc1cccc(C(=O)c2c[nH]c3ncccc23)c1,139 to 141
9,O=C(CO)Nc1ccccc1,79 to 81
10,Cc1cc(CN2CCNCC2)no1,59 to 71
11,COc1cc(Br)c2c(c1)NC(=O)C2=O,179 to 181
12,C#CCOc1cccc(C#N)c1,61 to 63
13,O/N=C(/Cc1nc2ccccc2n1C(F)F)c1ccccc1,165 to 167
14,NS(=O)(=O)c1cccc2cnccc12,222 to 224
15,CC(C)CNC(=O)NC(=O)C(C)Cl (stereo unspecified),85 to 87
16,Nc1ccccc1Cc1ccccc1,55 to 57

row,SMILES,melting point [°C]
1,Cc1cc(S(N)(=O)=O)sc1Br,149 to 151
2,O=C(Nc1nccs1)C1CCNCC1,196 to 198
3,Cc1cccc2[nH]cc(CCC(=O)O)c12,145 to 147
4,N#CCCNc1ccc2c(c1)OCCO2,83 to 85
5,Nc1nc(-c2ccccc2)c(-c2ncc[nH]2)s1,256 to 258
6,O=C1CCc2c(F)cc(F)cc21,95 to 97
7,COc1cccc(-c2noc(CCl)n2)c1,38 to 40
8,Nc1cc(Cl)cc([N+](=O)[O-])c1O,152 to 154
9,Cc1ccc(-c2n[nH]cc2Br)cc1C,116 to 118
10,O=C(O)C(F)(F)c1ccc([N+](=O)[O-])cc1,129 to 131
11,O=C(O)c1ccc(CNC(=O)C23CC4CC(CC(C4)C2)C3)cc1,195 to 197
12,Cc1ccc(C(=O)C(Cl)c2ccc(C)cc2)cc1 (stereo unspecified),67 to 69
13,CC1CC(C)CN(S(=O)(=O)c2ccc(S(=O)(=O)Cl)cc2)C1 (stereo unspecified),153 to 155
14,N#CCn1c(CCl)nc2ccccc2c1=O,143 to 145
15,CCOC(=O)c1c(C)n(Cc2ccccc2)c2ccc(O)cc12,198 to 200
